Assay results reported in ChEMBL document CHEMBL1158542, “Synthesis and biological evaluation of modified pentapeptides as potent proteinase K inhibitors” (Bioorg Med Chem Lett, 2010).
Calls of active or inactive are those of the source. No cut-off for these calls is given here.

Experiments:
[1] = Inhibition of proteinase K at 0.25 to 1 mM pretreated for 1 hr by RT-PCR analysis
[2] = Inhibition of proteinase K at 0.75 mM pretreated for 1 hr by RT-PCR analysis
[3] = Inhibition of proteinase K at 0.5 mM pretreated for 1 hr by RT-PCR analysis
HeLa [4] = test: Inhibition of proteinase K in human HeLa cells assessed as beta-actin RNA level at 0.5 mM by RT-PCR analysis; format: cell-based
[5] = Inhibition of proteinase K at 0.25 mM by RT-PCR analysis in presence of BSA
[6] = Inhibition of proteinase K at 0.05 mM pretreated for 1 hr by RT-PCR analysis
HeLa [7] = test: Inhibition of proteinase K in human HeLa cells assessed as beta-actin RNA level at 0.10 mM by RT-PCR analysis; format: cell-based
[8] = Inhibition of proteinase K at 0.10 mM by RT-PCR analysis in presence of BSA

inhibition [1] | inhibition [2] | inhibition [3] | inhibition [5] | inhibition [6] | inhibition [8] | SMILES | inhibition (HeLa [4]) | inhibition (HeLa [7])
Active | Active | inactive | Active |  |  | COC(=O)CCC(=O)N[C@@H](C)C(=O)N[C@H](C)C(=O)N[C@@H](C)C(=O)N1CCC[C@H]1C(=O)N[C@H](C(=O)CCl)C(C)C | Active | 
 |  |  |  | Active | Active | COC(=O)CCC(=O)N[C@@H](C)C(=O)N[C@H](C)C(=O)N[C@@H](C)C(=O)N1CCC[C@H]1C(=O)N[C@@H](CC(C)C)C(=O)CCl |  | Active
